From patent US20240368177A1, “5-AMINO-6,8-DIHYDRO-1H-FURO[3,4-d]PYRROLO[3,2-b]PYRIDINE-2-CARBOXAMIDE DERIVATIVES AS MTA-COOPERATIVE INHIBITORS OF PRMT5” (BeiGene Switzerland GmbH, priority 2023, published 2024)

How the values were obtained:
HCT116-MTAP-KO = test: Cell killing in HCT116 isogenic pair (Cell Titer-Glo viability), MTAP knock-out cells; type: cell-based, human; conditions: Homo sapiens, HCT-116, 144 h, 6 days incubation, 0-10 μM, * = more than 50% viability inhibition at tested concentration without a full curve
How it was run: (§1)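 Viability was read by CellTiter-Glo luminescence after 6 days of compound treatment (0–10 μM final, 37° C, 5% CO2), and IC50 values were fitted. The isogenic HCT116 pair, MTAP-KO clone versus mock-KO MTAP-wildtype, was grown in RPMI 1640 plus 10% FBS and seeded the day before.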

HCT116-mock-RNA-KO = test: Cell killing in HCT116 isogenic pair (Cell Titer-Glo viability), mock knock-out cells with MTAP wildtype genotype; type: cell-based, human; conditions: Homo sapiens, HCT-116, 144 h, 6 days incubation, 0-10 μM
How it was run: as §1

C[C@H]1OCc2c1c(N)nc1cc(C(=O)N(C)[C@@H]3COCc4cc(C(F)(F)F)ccc43)[nH]c21 [Example 68, (R)-5-amino-N,6-dimethyl-N—((S)-7-(trifluoromethyl)isochroman-4-yl)-6,8-dihydro-1H-furo[3,4-d]pyrrolo[3,2-b]pyridine-2-carboxamide]
IC50 (HCT116-MTAP-KO): 9 nM | IC50 (HCT116-mock-RNA-KO): 1690 nM

CN(C(=O)c1cc2nc(N)c3c(c2[nH]1)COC3)[C@H]1COCc2nc(C(F)(F)F)ccc21 [Example 86, (R)-5-amino-N-methyl-N-(2-(trifluoromethyl)-5,8-dihydro-6H-pyrano[3,4-b]pyridin-5-yl)-6,8-dihydro-1H-furo[3,4-d]pyrrolo[3,2-b]pyridine-2-carboxamide]
IC50 (HCT116-MTAP-KO): 1900 nM | IC50 (HCT116-mock-RNA-KO): > 10000 nM

CCC(CC)N(Cc1cc(C)c(C2CC2)cn1)C(=O)c1cc2nc(N)c3c(c2[nH]1)COC3 [Example 109, 5-amino-N-((5-cyclopropyl-4-methylpyridin-2-yl)methyl)-N-(pentan-3-yl)-6,8-dihydro-1H-furo[3,4-d]pyrrolo[3,2-b]pyridine-2-carboxamide]
IC50 (HCT116-MTAP-KO): 24 nM | IC50 (HCT116-mock-RNA-KO): 1790 nM

C[C@H]1OC[C@@H](N(C)C(=O)c2cc3nc(N)c4c(c3[nH]2)COC4)c2ccc(Br)cc21 [Example 81, 5-amino-N-((1R,4S)-7-bromo-1-methylisochroman-4-yl)-N-methyl-6,8-dihydro-1H-furo[3,4-d]pyrrolo[3,2-b]pyridine-2-carboxamide]
IC50 (HCT116-MTAP-KO): 9.7 nM | IC50 (HCT116-mock-RNA-KO): 1020 nM

CC[C@H]1OC[C@@H](N(C)C(=O)c2cc3nc(N)c4c(c3[nH]2)COC4)c2ccc(C(F)(F)F)cc21 [Example 94, 5-amino-N-((1R,4S)-1-ethyl-7-(trifluoromethyl)isochroman-4-yl)-N-methyl-6,8-dihydro-1H-furo[3,4-d]pyrrolo[3,2-b]pyridine-2-carboxamide]
IC50 (HCT116-MTAP-KO): 3.8 nM | IC50 (HCT116-mock-RNA-KO): 578 nM

CC[C@@H](C)N(Cc1ncc(C2CC2)cc1F)C(=O)c1cc2nc(N)c3c(c2[nH]1)COC3 [Example 67, (R)-5-amino-N-(sec-butyl)-N-((5-cyclopropyl-3-fluoropyridin-2-yl)methyl)-6,8-dihydro-1H-furo[3,4-d]pyrrolo[3,2-b]pyridine-2-carboxamide]
IC50 (HCT116-MTAP-KO): 4.2 nM | IC50 (HCT116-mock-RNA-KO): 453 nM

C[C@H](c1ncc(C(F)(F)F)cc1F)N(C(=O)c1cc2nc(N)c3c(c2[nH]1)COC3)C1CCC1 [Example 155, (R)-5-amino-N-cyclobutyl-N-(1-(3-fluoro-5-(trifluoromethyl)pyridin-2-yl)ethyl)-6,8-dihydro-1H-furo[3,4-d]pyrrolo[3,2-b]pyridine-2-carboxamide]
IC50 (HCT116-MTAP-KO): 19 nM | IC50 (HCT116-mock-RNA-KO): 2250 nM

CCN(C(=O)c1cc2nc(N)c3c(c2[nH]1)COC3)[C@H]1COCc2cc(C(F)(F)F)ccc21 [Example 55, (R)-5-amino-N-ethyl-N-(7-(trifluoromethyl)isochroman-4-yl)-6,8-dihydro-1H-furo[3,4-d]pyrrolo[3,2-b]pyridine-2-carboxamide]
IC50 (HCT116-MTAP-KO): 1640 nM | IC50 (HCT116-mock-RNA-KO): > 10000 nM

C[C@H](c1ccc(C(F)(F)F)cc1F)N(C)C(=O)c1cc2nc(N)c3c(c2[nH]1)CO[C@@H]3C [Example 148, (R)-5-amino-N—((R)-1-(2-fluoro-4-(trifluoromethyl)phenyl)ethyl)-N,6-dimethyl-6,8-dihydro-1H-furo[3,4-d]pyrrolo[3,2-b]pyridine-2-carboxamide]
IC50 (HCT116-MTAP-KO): 19 nM | IC50 (HCT116-mock-RNA-KO): 2440 nM

CN(C(=O)c1cc2nc(N)c3c(c2[nH]1)COC3)[C@@H]1CN(C(=O)C2CC2)Cc2cc(C(F)(F)F)ccc21 [Example 100, (S)-5-amino-N-(2-(cyclopropanecarbonyl)-7-(trifluoromethyl)-1,2,3,4-tetrahydroisoquinolin-4-yl)-N-methyl-6,8-dihydro-1H-furo[3,4-d]pyrrolo[3,2-b]pyridine-2-carboxamide]
IC50 (HCT116-MTAP-KO): 1.4 nM | IC50 (HCT116-mock-RNA-KO): 136 nM

C[C@H]1OCc2c1c(N)nc1cc(C(=O)N(C)[C@@H]3COC4(CC4)c4cc(Br)ccc43)[nH]c21 [Example 180, (R)-5-amino-N—((S)-7′-bromospiro[cyclopropane-1,1′-isochroman]-4′-yl)-N,6-dimethyl-6,8-dihydro-1H-furo[3,4-d]pyrrolo[3,2-b]pyridine-2-carboxamide]
IC50 (HCT116-MTAP-KO): 20 nM | IC50 (HCT116-mock-RNA-KO): 3570 nM

C[C@H](c1ccc(Br)cc1F)N(C)C(=O)c1cc2nc(N)c3c(c2[nH]1)CO[C@@H]3C [Example 139, (R)-5-amino-N—((R)-1-(4-bromo-2-fluorophenyl)ethyl)-N,6-dimethyl-6,8-dihydro-1H-furo[3,4-d]pyrrolo[3,2-b]pyridine-2-carboxamide]
IC50 (HCT116-MTAP-KO): 12 nM | IC50 (HCT116-mock-RNA-KO): 2400 nM

CN(C(=O)c1cc2nc(N)c3c(c2[nH]1)COC3)[C@@H]1COCc2cc(C(F)(F)F)cnc21 [Example 164, (S)-5-amino-N-methyl-N-(3-(trifluoromethyl)-7,8-dihydro-5H-pyrano[4,3-b]pyridin-8-yl)-6,8-dihydro-1H-furo[3,4-d]pyrrolo[3,2-b]pyridine-2-carboxamide]
IC50 (HCT116-MTAP-KO): 145 nM | IC50 (HCT116-mock-RNA-KO): > 10000 nM

Nc1nc2cc(C(=O)N(Cc3ncc(C4CC4)cc3F)C3CCCC3)[nH]c2c2c1COC2 [Example 65, 5-amino-N-cyclopentyl-N-((5-cyclopropyl-3-fluoropyridin-2-yl)methyl)-6,8-dihydro-1H-furo[3,4-d]pyrrolo[3,2-b]pyridine-2-carboxamide]
IC50 (HCT116-MTAP-KO): 17 nM | IC50 (HCT116-mock-RNA-KO): 2460 nM

CCN(C(=O)c1cc2nc(N)c3c(c2[nH]1)COC3)[C@@H](C)c1ncc(Br)cc1F [Example 144, (S)-5-amino-N-(1-(5-bromo-3-fluoropyridin-2-yl)ethyl)-N-ethyl-6,8-dihydro-1H-furo[3,4-d]pyrrolo[3,2-b]pyridine-2-carboxamide]
IC50 (HCT116-MTAP-KO): 543 nM | IC50 (HCT116-mock-RNA-KO): > 10000 nM

CC(C)N(Cc1ccc(C2CC2)cn1)C(=O)c1cc2nc(N)c3c(c2[nH]1)CO[C@@H]3C [Example 106, (R)-5-amino-N-((5-cyclopropylpyridin-2-yl)methyl)-N-isopropyl-6-methyl-6,8-dihydro-1H-furo[3,4-d]pyrrolo[3,2-b]pyridine-2-carboxamide]
IC50 (HCT116-MTAP-KO): 11 nM | IC50 (HCT116-mock-RNA-KO): 2630 nM

CO[C@@H]1CCOC[C@H]1N(Cc1ccc(-c2c(F)cccc2F)cn1)C(=O)c1cc2nc(N)c3c(c2[nH]1)CO[C@@H]3C [Example 23, (R)-5-amino-N-((5-(2,6-difluorophenyl)pyridin-2-yl)methyl)-N-((3R,4R)-4-methoxytetrahydro-2H-pyran-3-yl)-6-methyl-6,8-dihydro-1H-furo[3,4-d]pyrrolo[3,2-b]pyridine-2-carboxamide]
IC50 (HCT116-MTAP-KO): 4.8 nM | IC50 (HCT116-mock-RNA-KO): 81 nM

CCC(CC)N(Cc1c(F)cc(C(F)(F)F)cc1F)C(=O)c1cc2nc(N)c3c(c2[nH]1)CO[C@@H]3C [Example 116, (R)-5-amino-N-(2,6-difluoro-4-(trifluoromethyl)benzyl)-6-methyl-N-(pentan-3-yl)-6,8-dihydro-1H-furo[3,4-d]pyrrolo[3,2-b]pyridine-2-carboxamide]
IC50 (HCT116-MTAP-KO): 6.9 nM | IC50 (HCT116-mock-RNA-KO): 269 nM

C[C@H]1OCc2c1c(N)nc1cc(C(=O)N(C)[C@@H]3COC4(CC4)c4cc(C5CC5)ccc43)[nH]c21 [Example 171, (R)-5-amino-N—((S)-7′-cyclopropylspiro[cyclopropane-1,1′-isochroman]-4′-yl)-N,6-dimethyl-6,8-dihydro-1H-furo[3,4-d]pyrrolo[3,2-b]pyridine-2-carboxamide]
IC50 (HCT116-MTAP-KO): 39 nM | IC50 (HCT116-mock-RNA-KO): 3030 nM

CCN(C(=O)c1cc2nc(N)c3c(c2[nH]1)COC3)[C@@H](C)c1ccc(C2CC2)cn1 [Example 113, (S)-5-amino-N-(1-(5-cyclopropylpyridin-2-yl)ethyl)-N-ethyl-6,8-dihydro-1H-furo[3,4-d]pyrrolo[3,2-b]pyridine-2-carboxamide]
IC50 (HCT116-MTAP-KO): 1610 nM | IC50 (HCT116-mock-RNA-KO): > 10000 nM

CC(C)[C@@H](C)N(Cc1ncc(C2CC2)cc1F)C(=O)c1cc2nc(N)c3c(c2[nH]1)COC3 [Example 70, (R)-5-amino-N-((5-cyclopropyl-3-fluoropyridin-2-yl)methyl)-N-(3-methylbutan-2-yl)-6,8-dihydro-1H-furo[3,4-d]pyrrolo[3,2-b]pyridine-2-carboxamide]
IC50 (HCT116-MTAP-KO): 12 nM | IC50 (HCT116-mock-RNA-KO): 1180 nM

C[C@H](c1ncc(C2CC2)cc1F)N(C)C(=O)c1cc2nc(N)c3c(c2[nH]1)COC3 [Example 119, (R)-5-amino-N-(1-(5-cyclopropyl-3-fluoropyridin-2-yl)ethyl)-N-methyl-6,8-dihydro-1H-furo[3,4-d]pyrrolo[3,2-b]pyridine-2-carboxamide]
IC50 (HCT116-MTAP-KO): 9.8 nM | IC50 (HCT116-mock-RNA-KO): 1590 nM

Nc1nc2cc(C(=O)N(Cc3ccc(-c4c(F)cccc4F)cc3F)[C@@H]3CCOc4cccnc43)[nH]c2c2c1COC2 [Example 19, (R)-5-amino-N-(3,4-dihydro-2H-pyrano[3,2-b]pyridin-4-yl)-N-((2′,3,6′-trifluoro-[1,1′-biphenyl]-4-yl)methyl)-6,8-dihydro-1H-furo[3,4-d]pyrrolo[3,2-b]pyridine-2-carboxamide]
IC50 (HCT116-MTAP-KO): < 1.5 nM | IC50 (HCT116-mock-RNA-KO): 185 nM

CCN(C(=O)c1cc2nc(N)c3c(c2[nH]1)COC3)[C@@H]1COCc2cc(F)cc(F)c21 [Example 75, (S)-5-amino-N-(5,7-difluoroisochroman-4-yl)-N-ethyl-6,8-dihydro-1H-furo[3,4-d]pyrrolo[3,2-b]pyridine-2-carboxamide]
IC50 (HCT116-MTAP-KO): 41 nM | IC50 (HCT116-mock-RNA-KO): > 10000 nM

C[C@@H](c1c(F)cc(Br)cc1F)N(C)C(=O)c1cc2nc(N)c3c(c2[nH]1)COC3 [Example 122, (S)-5-amino-N-(1-(4-bromo-2,6-difluorophenyl)ethyl)-N-methyl-6,8-dihydro-1H-furo[3,4-d]pyrrolo[3,2-b]pyridine-2-carboxamide]
IC50 (HCT116-MTAP-KO): 2220 nM | IC50 (HCT116-mock-RNA-KO): 5780 nM

CC(=O)N1Cc2cc(C(F)(F)F)ccc2[C@H](N(C)C(=O)c2cc3nc(N)c4c(c3[nH]2)COC4)C1 [Example 98, (S)—N-(2-acetyl-7-(trifluoromethyl)-1,2,3,4-tetrahydroisoquinolin-4-yl)-5-amino-N-methyl-6,8-dihydro-1H-furo[3,4-d]pyrrolo[3,2-b]pyridine-2-carboxamide]
IC50 (HCT116-MTAP-KO): 11 nM | IC50 (HCT116-mock-RNA-KO): 1860 nM
